Experimental data: patent US20090227470A1, “SELECTION OF BIOCATALYSTS FOR CHEMICAL SYNTHESIS” (priority 2005, published 2009)
Several values for one entry are separate records, joined by “and”; a condition that tells them apart may be missing. Equal values may be shown once. Read-outs that look alike come from different tables or passages of the source.

Assays:
[1] = system: DH10B-pVSF2-lacZ/pCom10-XylC (benzaldehyde dehydrogenase XylC from Pseudomonas putida); experiment: Plate-based assay for β-galactosidase activity, biocat-reporter strain with XylC substrates; conditions: plates with chloramphenicol, kanamycin, X-Gal; decane vapor to induce XylC
Description: Cells were plated and grown as above, under decane vapor, followed by incubation at 4° C. and testing for blue colony color as above.
Strain DH10B-pVSF2-lacZ was transformed with pCom10-XylC, streaked on plates containing chloramphenicol, kanamycin, X-Gal and varying concentrations of benzaldehyde or 2-hydroxybenzaldehyde, and grown exposed to decane vapor to induce XylC. Strain DH10B-pVSF2-lacZ, carrying an empty pCom10 vector served as control.

[2] = system: DH10B-pVSF2-tet^r/pCom10-XylC (benzaldehyde dehydrogenase XylC from Pseudomonas putida); experiment: Plate-based assay for tetracycline resistance, biocat-selector strain with XylC substrates; assay type: cell-based, Escherichia coli; conditions: for EC50: Escherichia coli, read-out: substrate concentration required for half-maximal colony diameter, cells containing XylC, selective plates, estimated from inverse plots of FIG. 4
Description: Plasmid pCom10-XylC was re-introduced into DH10B-pVSF2-tet^r to produce the desired biocat-selector strain DH10B-pVSF2-tet^r/pCom10-XylC. This strain grew on tetracycline containing selective plates only after addition of benzaldehyde or 2-hydroxybenzaldehyde.

[3] = system: DH10B-pVSF2-tet^r (NahR mutant, Psal fused to tetA)
Description: (§1) Each plate assay was conducted in triplicate and growth was determined by measuring the colony diameter of 10 solitary colonies for each plate.
(§2) We compared the sensitivity of the selector host for substrates and products by plotting the data of FIGS. 3 and 4 as inverse plots of 1/[colony diameter] vs 1/[compound] and estimating the concentration required for half maximal colony size.

[4] = system: DH10B-pVSF2-lacZ (NahR mutant, salicylate promoter Psal fused to lacZa); conditions: plates with chloramphenicol and X-Gal, 36 h at 30° C.
Description: E. coli DH10B cells harbouring reporter plasmid pVSF2-lacZ were streaked on the plates from a liquid culture that had been grown at 30° C. to an OD600 of 0.1. Cells were grown for 36 h at 30° C. followed by incubation at 4° C. for 24 h after which blue colony color formation was evaluated visually.

[5] = target: NahR variant (Pseudomonas putida, UniProt P10183, N169D); conditions: reported by de Lorenzo and coworkers (Cebolla et al., 1997); cited from earlier work
Sequence of NahR variant (P10183 whole entry N169D, the tested form may be a part): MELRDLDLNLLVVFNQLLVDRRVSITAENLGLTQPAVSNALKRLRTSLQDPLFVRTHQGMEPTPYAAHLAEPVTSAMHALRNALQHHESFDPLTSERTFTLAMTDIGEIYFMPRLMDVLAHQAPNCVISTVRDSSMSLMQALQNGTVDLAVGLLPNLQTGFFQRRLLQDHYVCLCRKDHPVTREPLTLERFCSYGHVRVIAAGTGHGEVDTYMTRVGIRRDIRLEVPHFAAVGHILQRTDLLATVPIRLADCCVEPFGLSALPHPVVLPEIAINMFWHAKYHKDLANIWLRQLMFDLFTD

[6] = system: E. coli cell membranes; experiment: Passive diffusion across the cell envelope; assay type: in vitro ADME; conditions: for diffusion rate across E. coli cell membranes: estimated from studies of toluene oxidation by E. coli hosts containing xylMA
Description: This can be considered to be due to differences in the transport of benzaldehyde and benzoate through the E. coli cell envelope. Such transport is believed to involve only passive diffusion^21,22. […].
Thus, substrate influx and product efflux, though different, are quite rapid. […]

[7] = system: DH10B-pVSF2-tet^r (NahR mutant, Psal fused to tetA); experiment: microbe, parasite or virus in culture; conditions: Escherichia coli, read-out: concentration required for half maximal colony size (colony diameter 50% of maximum), product added extracellularly, selective plates; estimated from inverse plots of FIG. 3
Description: as §1, §2

SMILES: O=Cc1ccccc1O [2-hydroxybenzaldehyde]
- substrate concentration above which blue colonies were formed [1]: above 25 μM
- EC50 [2]: ~0.3 µM

SMILES: O=C(O)c1ccccc1O [2-hydroxybenzoate]
- fold more effective than the parent compound in triggering tetracycline resistance ([3]; 2-hydroxy substituted vs unsubstituted compound): 15-20
- EC50 ([3]; read-out: concentration required for half maximal colony size (colony diameter 50% of maximum), product added extracellularly, selective plates, estimated from inverse plots of FIG. 3): ~20 µM and 20 µM
- minimum concentration at which colonies were formed ([3]; selective media with tetracycline): 10 µM
- concentration at which smaller and also fewer colonies were observed ([3]; selective plates with tetracycline): 10 µM
- concentration above which blue colonies were detected [4]: higher than 10 μM
- saturating concentration for blue colony formation [4]: ~100 µM
- affinity of the NahR chemosensor, times greater than for benzoate [5]: 10

SMILES: O=Cc1ccccc1 [benzaldehyde]
- time for intracellular and extracellular concentrations to equilibrate [6]: a few seconds
- diffusion rate across E. coli cell membranes [6]: exceed 180 μmol/min/g cell dry mass
- substrate concentration above which blue colonies were formed [1]: above 50 μM
- EC50 [2]: ~6 µM
- concentration giving homogeneous growth ([2]; host with higher tetracycline tolerance, selective conditions): ~100 µM

SMILES: O=C(O)c1ccccc1 [benzoate]
- time for intracellular and extracellular concentrations to equilibrate [6]: one minute
- diffusion rate across E. coli cell membranes [6]: > 10 μmol/min/g cell dry mass
- EC50 [7]: ~400 µM
